Here are results for 22 compounds from patent US10028961B2, “Therapeutically active compounds and their methods of use” (AGIOS PHARMACEUTICALS, INC., priority 2013, dated 2018).

Read-outs that look alike come from different tables or passages of the source. Bounds are passed on as bounds.

Assay [1] addresses IDH1 wt/IDH1 R132H heterodimer (Homo sapiens (Human), UniProt O75874, R132H). The experiment in a line: In vitro assay for IDH1m R132H inhibitors, IDH1 wt/IDH1 R132H heterodimer, NADPH depletion (diaphorase/resazurin). Type of assay: biochemical. How it is done:
The following describes the experimental procedures that can be used to obtain data on columns 2 and 4 of Table 4 and column 2 of Table 5.
In the primary reaction, the reduction of α-KG acid to 2-HG is accompanied by a concomitant oxidation of NADPH to NADP. The amount of NADPH remaining at the end of the reaction time is measured in a secondary diaphorase/resazurin reaction in which the NADPH is consumed in a 1:1 molar ratio with the conversion of resazurin to the highly fluorescent resorufin.
The mixture of compound, enzyme, and cofactor is pre-incubated at room temperature for 1 hr prior to the addition of alpha-ketoglutarate. To perform the secondary reaction, 10 uL of 1× buffer containing 36 μg/ml diaphorase and […] resazurin is added to the primary reaction and incubated for a further 5 minutes at 25° C. […] Compounds or compound dilutions are prepared in 100% DMSO concentration and diluted 1:50 into the final reaction. […] IC50s are determined.
IDH1 or IDH2 wildtype (wt) and mutant heterodimers are expressed and purified by methods known in the art. […] Co-expression of IDH1wt-his and IDH1R132C-flag is carried out in sf9 insect cells. Cells (25 g) are resuspended in 250 ml of 50 mM Tirs, 500 mM NaCl, pH7.4, at 4° C. with stirring. Cells are disrupted with 4 passes through an M-Y110 Micro fluidizer (Microfluidics) set to 500 psi, and then centrifuged at 22,000 rcf for 20 min at 4° C. The supernatant is harvested and loaded at 15 cm/h on a Histrap FF 5*1 ml column (GE) which is equilibrated with 50 mM Tirs, 500 mM NaCl, pH7.4. Host cell contaminants are removed by washing the column with equilibration buffer followed by equilibration buffer containing 20 mM imidazole and 60 mM imidazole to baseline. IDH1wt-his homodimer and IDH1wt-his/IDH1R132C-flag are eluted by equilibration buffer containing 250 mM imidazole. Fractions eluted by 250 mM imidazole are pooled together and loaded at 15 cm/h onto a column pre-packed with 10 ml ANTI-FLAG® M2 Affinity Gel (Sigma), the column is equilibrated with 50 mM Tris, 500 mM NaCl, pH7.4. After washing with equilibration buffer, IDH1wt-his/IDH1R132C-flag heterodimer is eluted by equilibration buffer containing flag peptide (0.2 mg/ml). Aliquots of IDH1wt-his/IDH1R132C-flag are flash frozen in liquid N2 and stored at −80° C. Same conditions are used for the purification of IDH1wt-his/IDH1R132H-flag.
A general note: Alamar Blue is a resazurin reagent that responds to reducing activity.

Another assay has as its target IDH2 R140Q (Homo sapiens (Human), UniProt P48735, R140Q). In words: In vitro assay for IDH2m R140Q inhibitors, cofactor depletion assay. The format is biochemical. As to conditions: IDH2 R140Q enzyme. From the text: The following describes the experimental procedures used to obtain data on column 7 of Table 4.
The reaction is terminated by the addition of a second enzyme, diaphorase, and a corresponding substrate, resazurin. Diaphorase reduces resazurin to the highly fluorescent resorufin with the concomitant oxidation of NADPH to NADP, both halting the IDH2 reaction by depleting the available cofactor pool and facilitating quantitation of the amount of cofactor remaining after a specific time period through quantitative production of an easily detected fluorophore.
The test compound is then incubated for one hour at room temperature with the enzyme; before starting the IDH2 reaction with the addition of 10 μl of substrate mix containing 4 μM NADPH and 1.6 mM α-KG in the buffer described above. After a further 16 hours of incubation at room temperature, the reaction is halted and the remaining NADPH measured through conversion of resazurin to resorufin by the addition of 25 μl Stop Mix (36 μg/ml diaphorase enzyme and 60 μM resazurin; in buffer).

The test system of assay [2] is U87MG pLVX-IDH2 R140Q-neo cells. In words: U87MG pLVX-IDH2 R140Q-neo cell based assay, 2-HG by LC-MS. As to conditions: Homo sapiens, U-87 MG.
Assay [3] relates to Neurosphere cells (TS603). In words: Cellular assay for IDH1m R132H inhibitors, 2-HG by LC-MS in neurosphere cells (TS603). Type of assay: cell-based. The settings on record: 2-HG in media at 48 hours. How it is done: Cellular Assay for IDH1m R132H Inhibitors.
The following describes the experimental procedures that can be used to obtain data in column 4 of Table 5.
Neurosphere cells (TS603) are grown at 37 C in 5% CO2 in Stem Cell Technologies NeuroCult™ NS-A media supplemented with 1% Primocin, 1% Normocin, 0.0002% Heparin, 20 ng/mL EGF and 10 ng/mL bFGF. Cells are harvested, pelleted and resuspended in Accumax for cell dissociation and counting. Cells are counted and then resuspended in NeuroCult media with 2× heparin, EGF and bFGF at 4 million cells/10 mL media. 100 μl of cell solution are plated in each well of a 96 well with the exception of columns 1 and 12. Columns 1 and 12 contain 200 μL PBS. Compound dose responses are set up at a 2× concentration in Neurocult media without heparin, EGF and bFGF. The final concentration of DMSO is 0.25%. DMSO only control wells are plated in row H. The plates are then placed in the incubator for 48 hours. At 48 hours, 100 μl of media is removed from each well and analyzed by LC-MS for 2-HG concentrations. The cell plate is placed back in the incubator for another 24 hours. At 72 hours post compound addition, 10 mL/plate of Promega Cell Titer Glo reagent is thawed and mixed. The cell plate is removed from the incubator and allowed to equilibrate to room temperature. Then 100 μl of Promega Cell Titer Glo reagent is added to each well of media. The cell plate is then placed on an orbital shaker for 10 minutes and then allowed to sit at room temperature for 20 minutes. The plate is then read for luminescence with an integration time of 500 ms.

Where [4] appears, read: IDH1 wt/R132H heterodimer, NADPH/NADP, not saturated, read-out: IDH1 wt/R132H NADPH/NADP IC50 not saturated.
Where [5] appears, read: IDH1 wt/IDH1 R132H heterodimer, 300 μM NADP (saturated), read-out: IDH1 wt/R132H NADPH/NADP IC50 saturated.

IDH1 wt/IDH1 R132H heterodimer, sequence (O75874 whole entry R132H): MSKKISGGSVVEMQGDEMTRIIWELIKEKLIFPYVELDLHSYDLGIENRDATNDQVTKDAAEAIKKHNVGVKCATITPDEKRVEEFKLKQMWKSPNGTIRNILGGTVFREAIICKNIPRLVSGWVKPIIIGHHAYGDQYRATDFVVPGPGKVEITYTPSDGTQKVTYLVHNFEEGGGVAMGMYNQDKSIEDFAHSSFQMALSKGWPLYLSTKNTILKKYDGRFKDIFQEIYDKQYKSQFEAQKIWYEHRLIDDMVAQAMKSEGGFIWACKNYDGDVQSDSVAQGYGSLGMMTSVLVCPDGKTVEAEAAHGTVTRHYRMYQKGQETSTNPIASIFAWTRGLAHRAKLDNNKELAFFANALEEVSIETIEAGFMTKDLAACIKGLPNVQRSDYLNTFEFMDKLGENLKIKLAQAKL
IDH1 wt/IDH1 R132H heterodimer, sequence (O75874 whole entry, stated change not applied): as the sequence (O75874 whole entry R132H) above, with H132R counted along it
IDH2 R140Q, sequence (P48735 40-452 R140Q): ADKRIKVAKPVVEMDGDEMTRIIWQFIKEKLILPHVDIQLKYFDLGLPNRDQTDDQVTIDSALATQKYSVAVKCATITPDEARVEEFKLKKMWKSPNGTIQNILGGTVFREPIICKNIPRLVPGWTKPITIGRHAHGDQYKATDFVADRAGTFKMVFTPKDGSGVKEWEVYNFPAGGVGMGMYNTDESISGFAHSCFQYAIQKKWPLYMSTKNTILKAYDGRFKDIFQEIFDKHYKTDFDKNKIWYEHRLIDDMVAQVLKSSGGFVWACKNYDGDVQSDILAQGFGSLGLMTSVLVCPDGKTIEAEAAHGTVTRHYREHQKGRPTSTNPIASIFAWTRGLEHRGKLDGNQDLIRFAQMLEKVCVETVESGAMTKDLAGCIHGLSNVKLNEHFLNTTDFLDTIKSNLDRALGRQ

With `Fc1ccc2c(c1)CC(Nc1nc(NC3CCC(F)(F)C3)nc(-c3cccc(C(F)(F)F)n3)n1)C2` (stereo not shown) [Compound 150], the IC50 (in assay [1] (setting [4]); against IDH2 R140Q; in assay [2]; in assay [3]) was less than 50 nM in each case.
Take `FC1(F)CCC(Nc2nc(NC3CCC(c4ccccc4)C3)nc(-c3cccc(C(F)(F)F)n3)n2)C1` (stereo not shown) [Compound 184]: the IC50 (in assay [1] (setting [4]); against IDH2 R140Q; in assay [2]; in assay [3]) was less than 50 nM throughout.
As to `C[C@@H](Nc1nc(N[C@H](C)C2CC2)nc(-c2cccc(C(F)F)n2)n1)C1CC1` [Compound 198], the IC50 (in assay [1] (setting [4]); against IDH2 R140Q; in assay [2]; in assay [3]) was less than 50 nM each time.
As to `N#Cc1cc(Nc2nc(NC3CCC(F)(F)CC3)nc(-c3cccc(C(F)(F)F)n3)n2)ccn1` [Compound 204], the IC50 (in assay [1] (setting [4]); at IDH2 R140Q; in assay [2]; in assay [3]) was less than 50 nM each time.
Turning to `FC1(F)CCC(Nc2nc(NC3CC4(C3)CC(F)(F)C4)nc(-c3cccc(C(F)(F)F)n3)n2)CC1` [Compound 228], the IC50 (in assay [1] (setting [4]); against IDH2 R140Q; in assay [2]; in assay [3]) was less than 50 nM in each case.
In the case of `Fc1ccc([C@H]2C[C@H](Nc3nc(NC4CCC(F)(F)C4)nc(-c4cccc(C(F)(F)F)n4)n3)C2)cc1` (stereo partly shown) [Compound 230], the IC50 (in assay [1] (setting [4]); on IDH2 R140Q; in assay [2]; in assay [3]) was less than 50 nM throughout.
Regarding `CC[C@H](Nc1nc(N[C@@H](CC)C(F)(F)F)nc(-c2cncc(C(F)(F)F)n2)n1)C(F)(F)F` [Compound 339], the IC50 (in assay [1] (setting [5]); at IDH2 R140Q; in assay [2]; in assay [3]) was less than 50 nM throughout.
`FC1(F)CC[C@@H](Nc2nc(Nc3ccnc(C(F)(F)F)c3)nc(-c3ccnc(C(F)(F)F)n3)n2)C1` [Compound 340]: the IC50 is 100 to 1000 nM in assay [1] (setting [5]), less than 50 nM on IDH2 R140Q, less than 50 nM in assay [2] and 50 to 100 nM in assay [3].
`N#CC1(c2cc(Nc3nc(N[C@H]4CCC(F)(F)C4)nc(-c4ccnc(C(F)(F)F)n4)n3)ccn2)CC1` [Compound 341]: the IC50 was 100 to 1000 nM in assay [1] (setting [5]), less than 50 nM against IDH2 R140Q, less than 50 nM in assay [2] and less than 50 nM in assay [3].
As to `N#CC1(c2cc(Nc3nc(N[C@@H]4CCC(F)(F)C4)nc(-c4ccnc(C(F)(F)F)n4)n3)ccn2)CC1` [Compound 342], the IC50 in assay [1] (setting [5]) is 100 to 1000 nM; against IDH2 R140Q it was less than 50 nM; in assay [2] it was less than 50 nM; in assay [3], less than 50 nM.
On to `C[C@@H](Nc1nc(N[C@H](C)C(F)(F)F)nc(-c2ccnc(C(F)(F)F)n2)n1)C(F)(F)F` [Compound 344], for which the IC50 in assay [1] (setting [5]) was 50 to 100 nM; against IDH2 R140Q, 50 to 100 nM; in assay [2], 50 to 100 nM; in assay [3], less than 50 nM.
As to `CC[C@H](Nc1nc(N[C@@H](CC)C(F)(F)F)nc(-c2ccnc(C(F)(F)F)n2)n1)C(F)(F)F` [Compound 345], the IC50 in assay [1] (setting [5]) is less than 50 nM; on IDH2 R140Q it was 100 to 1000 nM; in assay [2], 100 to 1000 nM; in assay [3] it was less than 50 nM.
On to `CC[C@H](Nc1nc(N[C@@H](CC)C(F)(F)F)nc(-c2cccc(C(F)(F)F)n2)n1)C(F)(F)F` [Compound 346], for which the IC50 (in assay [1] (setting [5]); on IDH2 R140Q; in assay [2]; in assay [3]) was less than 50 nM each time.
Consider `C[C@H](Nc1nc(Nc2ccnc(C3(C#N)CC3)c2)nc(-c2cccc(C(C)(F)F)n2)n1)C(F)(F)F` [Compound 347], for which the IC50 (in assay [1] (setting [5]); at IDH2 R140Q; in assay [2]; in assay [3]) was less than 50 nM throughout.
For `C[C@@H](Nc1nc(Nc2ccnc(C3(C#N)CC3)c2)nc(-c2cccc(C(C)(F)F)n2)n1)C(F)(F)F` [Compound 348], the IC50 (in assay [1] (setting [5]); against IDH2 R140Q; in assay [2]; in assay [3]) was less than 50 nM in each case.
For `C[C@H](Nc1nc(Nc2ccnc(C3(C#N)CC3)c2)nc(-n2ccc(C(F)(F)F)n2)n1)C(F)(F)F` [Compound 349], the IC50 (in assay [1] (setting [5]); at IDH2 R140Q; in assay [2]; in assay [3]) was less than 50 nM in each case.
`C[C@H](Nc1nc(Nc2ccnc(C3(C#N)CC3)c2)nc(-c2cccc(C(F)(F)F)n2)n1)C(F)(F)F` [Compound 351]: the IC50 (in assay [1] (setting [5]); against IDH2 R140Q; in assay [2]; in assay [3]) was less than 50 nM in each case.
`C[C@@H](Nc1nc(Nc2ccnc(C3(C#N)CC3)c2)nc(-c2cccc(C(F)(F)F)n2)n1)C(F)(F)F` [Compound 352]: the IC50 (in assay [1] (setting [5]); against IDH2 R140Q; in assay [2]; in assay [3]) was less than 50 nM in each case.
Take `FC1(F)CCC(Nc2nc(Nc3ccnc(C(F)(F)F)c3)nc(-c3nc(C(F)(F)F)cs3)n2)C1` (stereo not shown) [Compound 353]: the IC50 (in assay [1] (setting [5]); against IDH2 R140Q; in assay [2]; in assay [3]) was less than 50 nM throughout.
For the compound `FC(F)(F)c1cccc(-c2nc(NCC3CC3(F)F)nc(NCC3CC3(F)F)n2)n1` (stereo not shown) [Compound 354], the IC50 in assay [1] (setting [5]) is 50 to 100 nM; against IDH2 R140Q it was less than 50 nM; in assay [2], less than 50 nM; in assay [3], less than 50 nM.
For the compound `CC(F)(F)c1cc(Nc2nc(N[C@@H]3CCC(F)(F)C3)nc(-c3cccc(C(F)(F)F)n3)n2)ccn1` [Compound 355], the IC50 (in assay [1] (setting [5]); against IDH2 R140Q; in assay [2]; in assay [3]) was less than 50 nM throughout.
Turning to `C[C@H](Nc1nc(Nc2ccnc(C(F)(F)F)c2)nc(-n2ccc(C(F)(F)F)n2)n1)C(F)(F)F` [Compound 356], the IC50 (in assay [1] (setting [5]); against IDH2 R140Q; in assay [2]; in assay [3]) was less than 50 nM in each case.
